Test results published in US11007232B2, “Use of neural cells derived from human pluripotent stem cells for the treatment of neurodegenerative diseases” (priority 2013, dated 2021).

Test system: DA neuron precursor cells
Test: Differentiation of DA neuron precursor cells into DA neurons with guggulsterone, FACS for TH
Type: cell-based, human
Conditions: guggulsterone 2.5 μM for two weeks; after 30 days of differentiation
Experimental: The DA neuron precursor cells were plated at 2000 cells/well of a 96-well plate and treated with guggulsterone (GS) at 2.5 μM for two weeks. After 30 days of differentiation, GS-treated neurons appeared mature with elaborate neurite extensions. At this stage, the derived cells expressed not only the major neuronal marker β-III-tubulin (TUJ1), but also the important DA neuron markers tyrosine hydroxylase (TH), the dopamine transporter (Dat), Foxa2, Nurr-1, and Girk2. […] The method specifically involved treating both hESC-H9-NSCs (Invitrogen) and hPSC-NSCs with Purmorphamine (2 μM) and FGF8 (100 ng/mL) in NB medium [NeuroBasal medium, 1× GlutaMAX, 1× N2/B27 Supplement (Invitrogen)] for 7 days. […] Two weeks after treatment with small molecules, all wells were visually observed and scored based on neurite density and dopamine release. For measuring neurite density, cells were fixed with 4% paraformaldehyde and phase contrast images were acquired using Cellavista Cell Imaging System (Roche Applied Science) from randomly selected fields. Neurite density was measured using the Cellavista density software image processing program. Each experimental condition was done in duplicate wells, and at least three independent experiments were conducted to acquire the final results.

C/C=C1\C(=O)C[C@H]2[C@@H]3CCC4=CC(=O)CC[C@]4(C)[C@H]3CC[C@]12C [guggulsterone]
cells gated TH positive (FACS analysis): more than 97%
